Values of other authors as cited in patent US20040186131A1, “Method of preventing or treating atherosclerosis or restenosis” (priority 2002, published 2004).

Test system: CMV infection of rats
Details: DHPG prophylaxis

Nc1nc(O)c2ncn(COC(CO)CO)c2n1 [Ganciclovir]
prevention of atherosclerosis resulting from CMV infection: prevent atherosclerosis
